According to BindingDB's records for doi:10.1016/0960-894X(96)00069-8 (1996):

Biological target: Carbonic anhydrase 2 (Homo sapiens, UniProt P00918)
Test: Kinetic constant for binding human carbonic anhydrase II ([…])
Details: read-out: kon (M-1-s-1)

- kon: 3.61e+07 M⁻¹ s⁻¹
Structure (SMILES): NS(=O)(=O)c1ccc(C(=O)NCC(=O)O)cc1 [(4-Sulfamoyl-benzoylamino)-acetic acid]
